Assay results as given in patent US9993002B2, “1,2,3-thiadiazol-5yl-urea derivatives, use thereof for regulating plant senescence and preparations containing these derivatives” (USTAV EXPERIMENTALNI BOTANIKY AV CR, V.V.I., priority 2014, dated 2018).
Like-named read-outs stand apart in the source and are kept apart here.

Experiments:
[1] = test system: detached leaf segments of Triticum aestivum cv. Hereward; test: Senescence bioassay on wheat leaf segments in dark conditions; settings: Triticum aestivum, foliar, 96 h, read-out: Senescence bioassay (IC50)
Protocol: (§1) Seeds of winter wheat, Triticum aestivum cv. Hereward, were washed under running water for 24 hours and then sown on perlite soaked with Hogland's solution. They were placed in the growth chamber at 25° C. with a 16/8 h light period at 50 μmol·m^−2·s^−1. After 7 days, the first leaf was fully developed and the second leaf had started to grow. A tip section of the first leaf, approximately 4 cm long, was removed from 4 seedlings and trimmed slightly to a combined weight of 100 mg. The basal ends of the four leaf tips were placed into the 96-wells plate containing 150 μL of the tested derivative solution each. The entire plate was inserted into a plastic box lined with paper tissues soaked in distilled water to prevent leaf sections from drying out. After 96 h incubation in the dark at 25° C., the leaves were removed and chlorophyll extracted by heating at 80° C. for 10 min in 5 mL of 80% ethanol (v/v). The sample volume was then restored to 5 mL by the addition of 80% ethanol (v/v). The absorbance of the extract was recorded at 665 nm. In addition, chlorophyll extracts from fresh leaves and leaf tips incubated in deionised water were measured. The results are means of five replicates and the entire test was repeated at least twice. […] The compounds to be tested were dissolved in dimethylsulfoxide (DMSO) and the solution brought up to 10^−3 M with distilled water. […] The IC50 values were determined for standard (BAP) and novel tested compounds.

[2] = test system: detached leaf segments of Triticum aestivum cv. Hereward; test: Senescence bioassay on wheat leaf segments in dark/light conditions; settings: foliar, 168 h, read-out: Senescence bioassay (IC50)
Protocol: as §1
The ability of the novel compounds to retard chlorophyll degradation in detached wheat leaves was tested also in the light conditions. The experiment was performed as described in Example 7 with modifications as follows—the incubation of the leaves with the compounds was done in the dark/light conditions 8/16 (light—100 μmol·m^−2·s^−1) at 22° C. for 7 days. […] The newly prepared substituted 1,2,3-thiadiazol-5-yl urea derivatives of the invention are much stronger anti-senescent compounds in comparison to the BAP in retarding senescence under optimal (dark/light) conditions.

[3] = test system: detached leaves of Triticum aestivum cv. Hereward; test: Membrane lipid peroxidation (MDA, TBA method) in detached wheat leaves in the dark; settings: for MDA: four days in the dark
Protocol: A typical symptom associated with senescence as a direct consequence of increased reactive oxygen species is membrane lipid peroxidation which produces malondialdehyde (MDA). Therefore the levels of MDA, a decomposition product of lipid peroxidation, were measured in detached wheat leaves that were exposed to the prepared novel derivatives or BAP for four days in the dark as described in Example 7. MDA levels were measured using a thiobarbituric acid (TBA) method. In detail, 100 mg of fresh plant material was homogenized by high speed shaking in a ball mill (MM301, Retsch, Germany) with 1 mL of 70% methanol. The crude extract was centrifuged at 10,000×g for 5 min, and 100 μL aliquot of supernatant was vortexed with 100 μL of 0.5% (w/v) TBA containing 0.1% (w/v) trichloroacetic acid, and the resulting solution was then incubated for 30 min at 95° C. The samples were quickly cooled on ice and centrifuged for 5 min at 1000 g. The absorbance of supernatant was measured at 532 nm with background subtraction at 600 nm and the amount of MDA-TBA complex was calculated from the coefficient of absorbance 155 mM^−1 cm^−1.

[4] = test system: Arabidopsis thaliana (wild-type Col-0); test: Root growth and lateral root formation of Arabidopsis; format: in vivo; settings: 10 nM, two weeks after transfer
Protocol: To investigate in vivo effect of the new derivatives on the root growth and development, seeds of Arabidopsis thaliana (wild-type Col-0) were surface sterilized and sown on vertical plates on half-strength Murashige-Skoog medium (supplied with 0.1% sucrose and 6 g/L phytagel) containing 10 nM BAP or 10 nM 1,2,3-thiadiazol-5-yl-urea derivative, or 0.01% DMSO (solvent control). After vernalization (4 days in the dark, 4° C.) plates were transferred into the growth chamber (22° C., 16/8 light/dark). Two weeks after transfer, seedlings were photographed and root elongation and lateral root formation was scored using Scion image software (Scion Corp., Frederick, Md., USA). At least 40 plants were measured for each treatment.

[5] = Toxicity towards human skin fibroblasts (Calcein AM assay); format: cell-based
Protocol: Cytotoxicity of the compounds to human skin fibroblasts (BJ cell line) was determined in a standard Calceinovém AM test. Cells were maintained in plastic tissue culture flasks and grown in Dulbecco's modified Eagle's medium for cell culture (DMEM) at 37° C. in 5% CO2 and 100% humidity. Cells were placed into 96-well microtiter plates (Nunc, Denmark) and after 12 hours pre-incubation, the tested compound was added to a final concentration ranging from […]. Cells were incubated for 72 hours. At the end of incubation period Calcein AM was added in PBS to a final concentration of […]. After 1 hour of incubation fluorescence was measured at 485/538 nm (ex/em wavelength) using Fluoroskan Ascent (Labsystems, Finland). IC50 values (the concentration causing reduction of calcein AM conversion to 50%) were calculated from the curves obtained. All experiments were repeated four times with a maximum deviation of 15%. Due to the limited solubility of substances in water, all the tested compounds were dissolved in DMSO and diluted with water to a final concentration.

wheat leaves = test: Ethylene production (defoliating activity) assay; set-up: species or system Triticum aestivum; settings: 10 μM; for Ethylene produced: 96 h in the dark at 25° C., control 270 (±15)
Protocol: We investigated the effect of the compounds of the invention on ethylene production in wheat leaves. The leaves were obtained as described in Example 8, placed in 5 mL glass vials and immersed at 10 μM solutions of tested compounds of the invention or TDZ. Distilled water was used as a control treatment. After 96 h incubation in the dark at 25° C., 1 mL of air was taken from the vials and content of ethylene in it was determined using gas chromatography with the flame ionization detector (GC-FID) method described by Fišerová et al. (Fišerová H, Kula E, Klemš M, Reinöhl V (2001) Phytohormones as indicators of the degree of damage in birch (Betula pendula). Biológia 56: 405-409).

[6] = test system: spring barley (Hordeum vulgare), malting variety Bojos; test: Field experiment, spring barley, pre-soaked seeds; format: in vivo; settings: seeds pre-soaked in 50 μM solution
Protocol: Seeds of spring barley (Hordeum vulgare), malting variety Bojos were pre-soaked in 50 μM solution of compound 6 or 65 and sown as described in example 15. For each variant at least 50 plants were used to obtain morphology parameters. Statistical evaluation was executed in stat. program PAST v. 2.17c.

[7] = dark, 25° C., chlorophyll absorbance 665 nm
[8] = dark/light 8/16, 22° C., 7 days

SMILES | IC50 [1, 7] [nM] | IC50 [2, 8] [nM] | MDA [3] | Lateral root number [4] | Primary root lenght [4] | CC50 at 72 h [5] [nM] | elevation of ethylene production compared to untreated control (wheat leaves; 96 h) [%] | Ethylene produced (wheat leaves) | level of membrane lipid peroxidation during dark senescence reduced to ([3]; compared to untreated control) [%] | grain yield compared to untreated control [6] [%] | IC50 [1] [nM] | IC50 [2] [nM] | CC50 at 72 h ([5]; BJ cell line, 72 hours, read-out: not toxic up to the highest tested concentration (Calcein AM IC50)) [nM]
O=C(NCc1ccco1)Nc1cnns1 [Compound 84, N-furfuryl-N′-1,2,3-thiadiazol-5-yl-urea] | 1200 | 30 | 12.7 (±1.1) nmol/g FW | 13 (±6) | 30 (±6) mm | > 100000 | 25 | 337 (±28) nL/g FW | – | – | – | – | –
COCCNC(=O)Nc1cnns1 [Compound 6, 1-(2-methoxy-ethyl)-3-[1,2,3]thiadiazol-5-yl-urea] | 950 | 30 | 9.6 (±0.7) nmol/g FW | 17 (±9) | 48 (±15) mm | > 100000 | – | 275 (±14) nL/g FW | 44.6 | 107.3 | – | – | –
O=C(NCCCl)Nc1cnns1 [Compound 65, 1-(2-Chloro-ethyl)-3-[1,2,3]thiadiazol-5-yl-urea] | – | – | 16.4 (±0.5) nmol/g FW | 12 (±8) | 36 (±8) mm | – | – | 335 (±25) nL/g FW | – | 109.0 | 14000 | 700 | > 100000
